According to patent publication US20240059658A1 (Emory University, priority 2019, published 2024):

Test system: EU-1
Assay: WST cytotoxicity assay, cancer cell EU-1
Assay type: cell-based, human
Settings: Homo sapiens, EU-1, EU-1; no other cell line named in the cell; read-out: Cancer cell (EU-1) cytotoxicity IC50
Experimental: This study used two ALL cell lines (EU-1 and EU-3) and three NB cell lines (NB-1643, SHEP1 and LA1-55N). All 5 cancer cell lines were established from pediatric ALL or NB patients and were well-characterized for their expression of MDM2 and p53-status, as reported previously. All cell lines were grown in standard culture medium (RPMI 1640 containing 10% FBS, 2 mmol/L L-glutamine, 50 U penicillin and 50 μg/mL streptomycin) at 37° C. in a humidified atmosphere containing 5% CO2.
The cytotoxic effect of MX 69 and MX69 analogs on cancer cells was determined using the water-soluble tetrazolium salt (WST) assay. Briefly, cells cultured in 96-well microtiter plates were treated with different concentrations of AQ-101 for a 20-h period. WST (25 μg/well) was then added and incubation continued for an additional 4 h, after which optical density (OD) was read with a microplate reader (test wavelength of 450 nm; reference wavelength of 620 nm).

| Compound | IC50 |
| --- | --- |
| Cc1ccc(NS(=O)(=O)c2ccc3c(c2)C2OCC[C@H]2[C@@H](c2ccc(C(=O)C(C)C)cc2)N3)cc1C (some centres unmarked) [Compound 69L52b] | 1.4 to 1.6 µM |
| Cc1ccc(NS(=O)(=O)c2ccc3c(c2)C2OCC[C@@H]2[C@@H](c2ccc(C(=O)C(C)C)cc2)N3)cc1C (some centres unmarked) [Compound 69L52c] | 2.4 to 2.5 µM |
| Cc1ccc(NS(=O)(=O)c2ccc3c(c2)C2OCC[C@@H]2[C@H](c2ccc(C(=O)C(C)C)cc2)N3)cc1C (some centres unmarked) [Compound 69L52d] | 0.5 µM |
| CC(=O)N1CCC([C@@H]2Nc3ccc(S(=O)(=O)Nc4ccc(C)c(C)c4)cc3C3OCC[C@H]32)CC1 (some centres unmarked) [Compound 69L57, 4-(1-acetylpiperidin-4-yl)-N-(3,4-dimethylphenyl)-2,3,3a,4,5,9b-hexahydrofuran[3,2-c]quinolone-8-sulfonamine] | 10.8 µM |
| Cc1ccc(NS(=O)(=O)c2ccc3c(c2)[C@H]2OCC[C@H]2C(c2ccc(C(=O)C4CC4)cc2)N3)cc1C (some centres unmarked) [Compound 69L67] | 5.18 µM |
| O=S(=O)(Nc1ccc(Br)c(Br)c1)c1ccc2c(c1)[C@H]1OCC[C@H]1[C@H](C1CCCCC1)N2 [Compound 69L68] | 5.1 µM |
| Cc1ccc(NS(=O)(=O)c2ccc3c(c2)[C@H]2OCC[C@H]2C(c2ccc(C(=O)C4CC4)cc2)N3)cc1Cl (some centres unmarked) [Compound 69L69] | 5.81 µM |
| C=CC(=O)c1ccc(C2Nc3ccc(S(=O)(=O)Nc4ccc(C)c(C)c4)cc3[C@H]3OCC[C@@H]23)cc1 (some centres unmarked) [Compound 69L71] | 30 µM |
| CC(C)C(=O)c1ccc(C2Nc3ccc(S(=O)(=O)Nc4ccc(Br)c(Br)c4)cc3[C@H]3OCC[C@@H]23)cc1 (some centres unmarked) [Compound 69L74] | 5.23 µM |
| CC(C)C(=O)c1ccc(C2Nc3ccc(S(=O)(=O)Nc4ccc(Cl)c(Cl)c4)cc3[C@H]3OCC[C@@H]23)cc1 (some centres unmarked) [Compound 69L76] | 5.59 µM |
| Cc1cc(NS(=O)(=O)c2ccc3c(c2)[C@H]2OCC[C@H]2C(c2ccc(C(=O)C(C)C)cc2)N3)ccc1Cl (some centres unmarked) [Compound 69L77] | 6.29 µM |
| Cc1ccc(NS(=O)(=O)c2ccc3c(c2)[C@H]2NCC[C@H]2[C@H](c2ccc(C(=O)C(C)C)cc2)N3)cc1C [Compound 69L82] | 29.7 µM |
| Cc1ccc(NS(=O)(=O)c2ccc3c(c2)C2CCC[C@H]2[C@H](c2ccc(C(O)C(C)C)cc2)N3)cc1C (some centres unmarked) [Compound 69L86] | 3.77 µM |
| Cc1ccc(NS(=O)(=O)c2ccc3c(c2)C2CCC[C@H]2[C@H](c2ccc(C(=O)C(C)C)cc2)N3)cc1C (some centres unmarked) [Compound 69L88] | 6.97 µM |
| Cc1cc(NS(=O)(=O)c2ccc3c(c2)C2OCC[C@H]2C(c2ccc(C(=O)C(C)C)cc2)N3)ccc1C(F)(F)F (some centres unmarked) [Compound 69L89] | 7.2 µM |
| Cc1cc(NS(=O)(=O)c2ccc3c(c2)C2OCC[C@H]2C(C2CCCCC2)N3)ccc1C(F)(F)F (some centres unmarked) [Compound 69L90] | 3.26 µM |
| O=S(=O)(Nc1ccc(C(F)(F)F)c(C(F)(F)F)c1)c1ccc2c(c1)C1OCC[C@H]1C(C1CCCCC1)N2 (some centres unmarked) [Compound 69L91] | > 10 µM |
| Cc1ccc(NS(=O)(=O)c2ccc3[nH]c(-c4ccc(C(=O)C(C)C)cc4)c(I)c(=O)c3c2)cc1C [Compound 69L97] | 9.36 µM |
| CC(=O)c1ccc(C2Nc3ccc(S(=O)(=O)Nc4cccc(C(C)=O)c4)cc3[C@H]3OCC[C@@H]23)cc1 (some centres unmarked) [Compound 69L110] | 0.27 µM |
| CC(=O)c1ccc(NS(=O)(=O)c2ccc3c(c2)[C@H]2OCC[C@H]2C(c2ccc(C(C)=O)cc2)N3)cc1 (some centres unmarked) [Compound 69L111] | 1.37 µM |
| CC(=O)c1cccc(NS(=O)(=O)c2ccc3c(c2)[C@H]2OCC[C@H]2C(c2ccc(C(C)C)cc2)N3)c1 (some centres unmarked) [Compound 69L115] | 0.56 µM |
| O=S(=O)(Nc1ccc2c(c1)CCO2)c1ccc2c(c1)[C@H]1OCC[C@H]1C(c1ccccc1)N2 (some centres unmarked) [Compound 69L118] | 0.15 µM |
| CC(C)C(=O)c1cccc(C2Nc3ccc(S(=O)(=O)Nc4cccc(C(C)O)c4)cc3C3OCC[C@@H]23)c1 (some centres unmarked) [Compound 69L122] | > 10 µM |
| CC(=O)c1cccc(C2CC(=O)c3cc(S(=O)(=O)Nc4ccc5c(c4)COC5)ccc3N2)c1 (centres unmarked) [Compound 69L124, 2-(3-acetylphenyl)-N-(1,3-dihydroisobenzofuran-5-yl)-4-oxo-1,2,3,4-tetrahydroquinoline-6-sulfonamide] | 0.46 µM |
| CCC(=O)c1cccc(NS(=O)(=O)c2ccc3c(c2)C2OCC[C@H]2C(c2ccc(C(=O)C(C)C)cc2)N3)c1 (some centres unmarked) [Compound 69L125, 4-(4-isobutyrylphenyl)-N-(3-propionylphenyl)-2,3,3a,4,5,9b-hexahydrofuro[3,2-c]quinoline-8-sulfonimide] | 1.48 µM |
| CCC(=O)c1cccc(NS(=O)(=O)c2ccc3c(c2)C(=O)CC(c2cccc(C(C)=O)c2)N3)c1 (centres unmarked) [Compound 69L126, 2-(3-acetylphenyl)-4-oxo-N-(3-propionylphenyl)-1,2,3,4-tetrahydro-quinoline-6-sulfonamide] | 1.14 µM |
| O=S(=O)(Nc1ccc2c(c1)CCO2)c1ccc2c(c1)C1OCC[C@H]1C(c1ccc3c(c1)CCO3)N2 (some centres unmarked) [Compound 69L128] | 1.31 µM |

| Compound | IC50 |
| --- | --- |
| CCC(=O)c1cccc(NS(=O)(=O)c2ccc3c(c2)C(=O)CC(c2ccc4c(c2)CCO4)N3)c1 (centres unmarked) [Compound 69L129] | 0.65 µM |
| CC(=O)c1cccc(NS(=O)(=O)c2ccc3c(c2)C2NCC[C@H]2C(c2ccc(C(=O)C(C)C)cc2)N3)c1 (some centres unmarked) [Compound 69L130] | > 10 µM |
| CC(C)C(=O)c1ccc(C2Nc3ccc(S(=O)(=O)Nc4cccc(C(C)C)c4)cc3[C@H]3OCC[C@@H]23)cc1 (some centres unmarked) [Compound 69L134] | 6.53 µM |
| CC(=O)c1cccc(C2CC(=O)c3cc(S(=O)(=O)Nc4cccc(C(C)C)c4)ccc3N2)c1 (centres unmarked) [Compound 69L135] | 0.15 µM |
| CC(C)C(=O)c1ccc(C2Nc3ccc(S(=O)(=O)Nc4cccc(C(C)(C)C)c4)cc3[C@H]3OCC[C@@H]23)cc1 (some centres unmarked) [Compound 69L136] | 6.16 µM |
| CC(C)c1cccc(NS(=O)(=O)c2ccc3c(c2)C(=O)CC(c2cccc(C(C)C)c2)N3)c1 (centres unmarked) [Compound 69L137] | 5 µM |
| CC(C)c1cccc(C2CC(=O)c3cc(S(=O)(=O)Nc4ccc5c(c4)CCO5)ccc3N2)c1 (centres unmarked) [Compound 69L138] | 1.4 µM |
| CC(C)C(=O)c1cccc(C2CC(=O)c3cc(S(=O)(=O)Nc4cccc(C(C)C)c4)ccc3N2)c1 (centres unmarked) [Compound 69L139] | 0.66 µM |
| CC(C)C(=O)c1cccc(C2CC(=O)c3cc(S(=O)(=O)Nc4ccc5c(c4)CCO5)ccc3N2)c1 (centres unmarked) [Compound 69L140] | 0.23 µM |
| CC(C)C(=O)c1ccc(C2Nc3ccc(S(=O)(=O)Nc4cccc(N(C)C)c4)cc3[C@H]3OCC[C@@H]23)cc1 (some centres unmarked) [Compound 69L141] | 7.5 µM |
| CC(C)C(=O)c1ccc(C2Nc3ccc(S(=O)(=O)Nc4ccc5c(c4)OCO5)cc3[C@H]3OCC[C@@H]23)cc1 (some centres unmarked) [Compound 69L142] | > 5 µM |
| CN(C)c1cccc(NS(=O)(=O)c2ccc3c(c2)[C@H]2OCC[C@H]2[C@H](C2CCCCC2)N3)c1 [Compound 69L143] | 3.96 µM |
| CC(=O)c1cccc(NS(=O)(=O)c2ccc3c(c2)[C@H]2OCC[C@H]2[C@H](C2CCCCC2)N3)c1 [Compound 69L144] | 1.53 µM |
| CC(C)C(=O)c1cccc(C2CC(=O)c3cc(S(=O)(=O)Nc4ccc(Cl)c(Cl)c4)ccc3N2)c1 (centres unmarked) [Compound 69L145] | 3.5 µM |
| CC(C)C(=O)c1ccc(C2Nc3ccc(S(=O)(=O)Nc4cccc5c4COC5=O)cc3[C@H]3OCC[C@@H]23)cc1 (some centres unmarked) [Compound 69L146] | 3.81 µM |
| CC(=O)c1cccc(C2CC(=O)c3cc(S(=O)(=O)Nc4ccc5c(c4)OCO5)ccc3N2)c1 (centres unmarked) [Compound 69L147] | 1.16 µM |
| CCc1cccc(NS(=O)(=O)c2ccc3c(c2)[C@H]2OCC[C@H]2C(c2ccc(C(=O)C(C)C)cc2)N3)c1 (some centres unmarked) [Compound 69L148] | 2.05 µM |
| CC(C)C(=O)c1cccc(C2CC(=O)c3cc(S(=O)(=O)Nc4cccc5c4COC5=O)ccc3N2)c1 (centres unmarked) [Compound 69L149] | 0.58 µM |
| CCc1cccc(NS(=O)(=O)c2ccc3c(c2)C(=O)CC(c2cccc(C(=O)C(C)C)c2)N3)c1 (centres unmarked) [Compound 69L150, N-(3-ethylphenyl)-2-(3-isobutyrylphenyl)-4-oxo-1,2,3,4-tetrahydroquinoline-6-sulfonamide] | 0.04 µM |
| CC(C)C(=O)c1cccc(C2CC(=O)c3cc(S(=O)(=O)Nc4cccc(C#N)c4)ccc3N2)c1 (centres unmarked) [Compound 69L155] | 1.45 µM |
| Cc1ccc(NS(=O)(=O)c2ccc3c(c2)C(=O)CC(c2cccc(C(=O)C(C)C)c2)N3)cc1C#N (centres unmarked) [Compound 69L156] | 0.54 µM |
| COc1cccc(NS(=O)(=O)c2ccc3c(c2)C(=O)CC(c2cccc(C(=O)C(C)C)c2)N3)c1 (centres unmarked) [Compound 69L157, 2-(3-isobutyrylphenyl)-N-(3-methoxyphenyl)-4-oxo-1,2,3,4-tetrahydroquinoline-6-sulfonamide] | 0.33 µM |
| Cc1ccc(NS(=O)(=O)c2ccc3c(c2)C(=O)CC(c2cccc(C(=O)N(C)C)c2)N3)cc1C (centres unmarked) [Compound 69L158] | 0.63 µM |
| COc1cccc(NS(=O)(=O)c2ccc3c(c2)C(=O)CC(c2cccc(C(=O)N(C)C)c2)N3)c1 (centres unmarked) [Compound 69L159, 3-(6-(N-(3-methoxyphenyl)sulfamoyl)-4-oxo-1,2,3,4-tetrahydroquinolin-2-yl)-N,N-dimethylbenzamide] | 0.65 µM |
| COc1cc(NS(=O)(=O)c2ccc3c(c2)C(=O)CC(c2cccc(C(=O)C(C)C)c2)N3)ccc1C (centres unmarked) [Compound 69L160, 2-(3-isobutyrylphenyl)-N-(3-methoxy-4-methylphenyl)-4-oxo-1,2,3,4-tetrahydroquinoline-6-sulfonamide] | 0.54 µM |
| COc1cc(NS(=O)(=O)c2ccc3c(c2)C(=O)CC(c2cccc(C(=O)N(C)C)c2)N3)ccc1C (centres unmarked) [Compound 69L161] | 0.82 µM |
